Measured values as given in patent US20250177564A1, “GENE THERAPY FOR THE TREATMENT OF HT1” (LogicBio Therapeutics, Inc., priority 2021, published 2025).

Tests used:
[1] = test system: HT1 patients; details: cited from earlier work
[2] = test system: Fah−/− mice; test: Disease progression and resolution with and without NTBC (NTBC cycling); format: in vivo, mouse
Method: Fah−/− mice were kept on 8 mg/L of NTBC-drinking water prior to the initiation of the study at 7 weeks of age. Animals were then supplied with regular water (NTBC off) for 7 days, followed by NTBC-containing water at 8 mg/L for another 7 days. The above cycling was repeated for another 14 days. During the study, animals were monitored for daily body weight. Submandibular blood and urine were sampled periodically, and serum and plasma were collected and stored at −80° C. until further analysis. At sacrifice, blood was collected for plasma via cardiac puncture. For liver dissection, one lobe of liver was fixed by 10% formalin, and the remaining was snap-frozen and stored at −80° C. The following day, the formalin-fixed liver was transferred to 70% ethanol for paraffin embedding.

[3] = test system: Fah−/− mice; test: Compatibility between NTBC (standard of care) and GENERIDE, NTBC titration; format: in vivo, mouse; details: high doses of NTBC
Method: Four-week-old Fah−/− animals were treated with rAAV.DJ-GR-mFAH at dosages of 1e14 vg/kg via retro-orbital sinus under anesthesia. All mice were kept on 8 mg/L of NTBC prior to the initiation of the study until 4 weeks post dosing, and then NTBC were either maintained at 8 mg/L (control) or titrated down to 3 mg/L, 0.8 mg/L, or 0.3 mg/L for 8 weeks. During the study, animals were sampled periodically by submandibular bleed and plasma was collected and stored at −80° C. until further analysis. At sacrifices, blood was collected for plasma via cardiac puncture. For liver dissection, one lobe of liver was fixed by 10% formalin, and the remaining was snap-frozen and stored at −80° C. Next day, formalin-fixed liver was transferred to 70% ethanol for paraffin embedding.
Viral vectors comprising an AAV-DJ viral capsid, mouse FAH (mFAH) transgene, P2A sequence, and flanking 5′ homology arm 1000 nucleotides (nt) in length and a 3′ homology arm 1600 nt in length homology arms were constructed. Homology arms were designed for complementarity to a mouse genomic albumin target integration site. Viral vectors herein described were administered at a dosage of 1e14 vg/kg to […] groups (Groups 1, 2, 3, 4) of Fah−/− mice via intravenous injection at 4 weeks of age. […] Mice were assessed for circulating biomarkers (e.g., levels of ALB-2A) for up to 6 weeks post-NTBC titration (FIG. 4B).

O=C1CCCC(=O)C1C(=O)c1ccc(C(F)(F)F)cc1[N+](=O)[O-] [NTBC, 2-(2-nitro-4-trifluoromethylbenzoyl)-1,3cyclohexanedione]
risk of developing HCC, NTBC started after the neonatal period compared to patients treated as neonates [1]: 2-12 fold
time to restore levels of disease biomarkers (SUAC) and liver synthetic function (aPTT, ALT, blood glucose) ([2]; NTBC 8 mg/L drinking water): less than 7 days
time to abnormal levels of disease biomarkers (SUAC) and liver synthetic function upon withdrawal ([2]; NTBC withdrawal): less than 3 days
effect on selective expansion of GENERIDE edited cells (hepatocytes) [3]: prevent selective expansion
